Data on 15 compounds can be found in paper PMC6009855, “Design and synthesis of naphthalimide group-bearing thioglycosides as novel β-N-acetylhexosaminidases inhibitors” (Journal of Enzyme Inhibition and Medicinal Chemistry, 2018).

Where two headings read alike, the source gives them in different places.

Data set [1] deals with T1, hsHexB (Homo sapiens, UniProt P07686).
T1 construct: His6; made in house; host or cells: Pichia pastoris GS115 (pPIC9 vector)
T1 sequence (P07686 122-556): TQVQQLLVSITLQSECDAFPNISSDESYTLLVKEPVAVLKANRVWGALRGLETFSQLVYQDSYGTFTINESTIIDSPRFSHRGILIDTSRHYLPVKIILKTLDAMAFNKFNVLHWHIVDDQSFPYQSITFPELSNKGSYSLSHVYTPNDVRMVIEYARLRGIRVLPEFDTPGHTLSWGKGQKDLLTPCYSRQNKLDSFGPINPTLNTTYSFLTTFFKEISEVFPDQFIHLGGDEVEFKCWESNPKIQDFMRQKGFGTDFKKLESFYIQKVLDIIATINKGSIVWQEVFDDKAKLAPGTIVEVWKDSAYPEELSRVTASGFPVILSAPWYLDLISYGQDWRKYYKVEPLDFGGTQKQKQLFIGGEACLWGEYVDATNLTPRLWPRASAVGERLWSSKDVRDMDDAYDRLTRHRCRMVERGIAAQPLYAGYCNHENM
The data set is described as follows: Inhibitory potency assay, end-point, 4-MU-GlcNAc substrate, pH 4.0. The format is biochemical. As to conditions: for Inhibition potency against hsHexB (in words): each compound at 20 µM, Figure 3; for Ki: 4-MU-GlcNAc, pH 4.0, 30 °C, 30 min, read-out: Ki against hsHexB. On the procedure: (§1) Gene encoding hsHexB, which was engineered to contain a His6-tagged fusion protein, was cloned into pPIC9 expression vector (Invitrogen, Carlsbad, CA, USA), and subsequently transformed into Pichia pastoris GS115 (Invitrogen, Carlsbad, CA, USA) by electroporation. The cells were first cultured in BMGY broth (1% yeast extract, 1% glycerol, 2% peptone, 0.2% biotin, 1.34% yeast nitrogen, 0.1 M potassium phosphate, pH 6.0) at 30 °C. Methanol was added into the culture daily at a final concentration of 1% (v/v). When OD600 value reached 2.0 (after ∼120 h), the cells were harvested by centrifugation at 6000g for 10 min. While the pellet was resuspended in BMMY broth (1% yeast extract, 1% methanol, 2% peptone, 0.2% biotin, 1.34% yeast nitrogen, 0.1 M potassium phosphate, pH 6.0), the supernatant was subjected to ammonium sulfate precipitation (75% saturation) at 4 °C, in which the precipitate was further resuspended in distilled water and then desalted in buffer A (20 mM sodium phosphate, 0.5 M sodium chloride, pH 7.4). Subsequently, the resuspension solution was centrifuged at 17,000g for 30 min at 4 °C and passed through a 0.2-µm filter prior to loading onto a 5-ml HisTrap FF affinity column (GE Healthcare, Chicago, IL, USA), which was pre-equilibrated with buffer A. To remove nonspecific binding proteins, the column was sequentially washed with buffer A-containing 20 mM imidazole and buffer A-containing 50 mM imidazole. Finally, the target protein was eluted with buffer B (20 mM sodium phosphate, 0.5 M sodium chloride, 150 mM imidazole, pH 7.4). Purity of the protein was further analyzed by SDS–PAGE. hOGA was overexpressed in Escherichia coli BL21(DE3) and purified as described previously.
(§2) Potencies of hsHexB and hOGA were assayed by end-point experiment, in which 4-methylumbelliferyl N-acetyl-β-D-glucosaminide (4-MU-GlcNAc; Sigma, St. Louis, MO, USA) was used as a substrate. Various concentrations of inhibitors and substrates (50 µM, 25 µM, and 12.5 µM) were mixed with Britton-Robinson buffer (hsHexB, pH 4.0; hOGA, pH 6.0), dimethylsulfoxide at a final concentration of 2%, enzyme, and 40 µM 4-MU-GlcNAc in a reaction of 100-µl final volume, and incubated at 30 °C for 30 min. Then, the enzymatic reaction was terminated by the addition of 100 µl of 0.5 M sodium carbonate solution. The fluorescence of the released 4-methylumbelliferone was quantified (excitation at 366 nm, emission at 445 nm) on a Varioskan Flash microplate reader (Thermo Fisher Scientific, Waltham, MA, USA). To determine the inhibition constant (Ki), the reciprocal plots of 1/velocity versus inhibitor were constructed. Data analysis was performed using Graph Pad Prism software (Graph Pad Software Inc., San Diego, CA, USA).

Data set [2] concerns hsHexA. More on the design: method as in PMID 17317569. As to conditions: read-out: IC50 against hsHexA; cited from earlier work.
Data set [3] concerns GH20 and GH84 β-N-acetylhexosaminidases. Also on record: method as in PMID 22280348, PMID 23688083. Particulars: cited from earlier work.
In data set [4] the target is hsHex. More on the design: method as in PMID 24900704. As to conditions: read-out: Ki against hsHex; cited from earlier work.
For data set [5], the target named is GH20 insect β-N-acetylhexosaminidase OfHex1. Also on record: method as in PMID 25155420. Particulars: read-out: Ki against OfHex1; cited from earlier work.
The target in data set [6] is T2, hOGA (Homo sapiens, UniProt O60502).
T2 construct: made in house; host or cells: Escherichia coli BL21(DE3)
T2 sequence (O60502 1-916): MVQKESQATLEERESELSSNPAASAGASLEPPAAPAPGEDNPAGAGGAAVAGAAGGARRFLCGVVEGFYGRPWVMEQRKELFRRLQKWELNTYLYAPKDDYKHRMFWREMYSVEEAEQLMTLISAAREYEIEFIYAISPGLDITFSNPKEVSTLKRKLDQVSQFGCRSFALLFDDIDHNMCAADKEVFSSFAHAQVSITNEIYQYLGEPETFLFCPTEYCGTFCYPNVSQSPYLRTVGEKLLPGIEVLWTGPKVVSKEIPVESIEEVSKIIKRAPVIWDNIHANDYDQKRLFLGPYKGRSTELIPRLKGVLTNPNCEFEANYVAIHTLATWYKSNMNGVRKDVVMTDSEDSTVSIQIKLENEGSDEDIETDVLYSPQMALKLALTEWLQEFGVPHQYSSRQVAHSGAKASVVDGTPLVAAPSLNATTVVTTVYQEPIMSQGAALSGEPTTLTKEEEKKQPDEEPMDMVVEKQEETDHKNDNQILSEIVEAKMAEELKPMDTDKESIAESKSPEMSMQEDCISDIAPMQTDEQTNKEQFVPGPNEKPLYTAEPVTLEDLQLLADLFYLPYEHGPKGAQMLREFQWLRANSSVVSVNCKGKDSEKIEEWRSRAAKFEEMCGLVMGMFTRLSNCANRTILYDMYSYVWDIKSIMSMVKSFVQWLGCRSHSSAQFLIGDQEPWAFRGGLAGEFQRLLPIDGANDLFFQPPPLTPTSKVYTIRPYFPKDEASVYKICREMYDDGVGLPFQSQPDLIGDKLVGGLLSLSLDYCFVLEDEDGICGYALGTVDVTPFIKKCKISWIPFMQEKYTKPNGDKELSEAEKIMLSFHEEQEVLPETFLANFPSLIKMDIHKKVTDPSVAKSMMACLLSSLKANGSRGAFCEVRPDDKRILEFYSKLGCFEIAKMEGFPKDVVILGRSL
The data set can be described thus: Inhibitory potency assay, end-point, 4-MU-GlcNAc substrate, pH 6.0. Particulars: for Ki: 4-MU-GlcNAc, pH 6.0, 30 °C, 30 min, read-out: Ki against hOGA; for Inhibition potency against hOGA (in words): each compound at 20 µM, Figure 3. The format is biochemical. On the procedure: as §1, §2

Data set [7] addresses T1, hsHexB. More on the design: method as in PMID 20187655. As to conditions: cited from earlier work.

Regarding “2-[2-[2-[(2-acetamido-β-D-glucopyranosyl)thio]ethylamino]ethyl]-1H-benzo[de] isoquinoline-1,3(2H)-dione [compound 15a]”, the “Inhibition potency against hsHexB (in words)” value in data set [1] is “highest potencies”.
The term IC50 denotes the point on the concentration scale where inhibition reaches its midpoint. Take `O=C1c2cccc3cccc(c23)C(=O)N1CCNCCN1C(=O)c2cccc3cccc(c23)C1=O` [M-31850]: in data set [2], the IC50 was 6 µM.
As to `CC1=N[C@@H]2[C@@H](O)[C@H](O)[C@@H](CO)O[C@@H]2S1` [NAG-thiazoline], in data set [3], the “Selectivity between GH20 and GH84 β-N-acetylhexosaminidases” value was “non-selectivity”.
Regarding `CC(=O)N[C@@H]1[C@@H](O)[C@H](O)[C@@H](CO)O[C@H]1SCCCCCNCCN1C(=O)c2cccc3cccc(c23)C1=O` [compound 15g], the “Inhibition potency against hsHexB (in words)” value in data set [1] is given as “highest potencies”.
On the same count and under the same terms, the result for `CC(=O)N[C@@H]1[C@@H](O)[C@H](O)[C@@H](CO)O[C@H]1SCCCCCCNCCCCN1C(=O)c2cccc3cccc(c23)C1=O` [compound 15l] reads “considerably decreased”.
A word on the Ki: it is a dissociation constant, usually derived from enzyme kinetics or from competition with a known ligand. For `COc1ccc(CNCCN2C(=O)c3cccc4cccc(c34)C2=O)cc1` [compound 7a (7)], in data set [4], the Ki was 0.63 µM.
Turning to `CC(=O)N[C@H]1/C(=N/OC(=O)Nc2ccccc2)O[C@H](CO)[C@@H](O)[C@@H]1O` [PUGNAc], in data set [3], the “Selectivity between GH20 and GH84 β-N-acetylhexosaminidases” value is given as “non-selectivity”.
In the case of `Cc1nnc(CNCCN2C(=O)c3cccc4cccc(c34)C2=O)s1` [compound Q1], the Ki in data set [5] was 4.28 µM.
As to `CC(=O)N[C@H]1c2nc(CC(=O)O)cn2[C@H](CO)[C@H](O)[C@@H]1O` [Nagstatin], in data set [3], the “Selectivity between GH20 and GH84 β-N-acetylhexosaminidases” value is given as “non-selectivity”.
Consider `CC(=O)N[C@@H]1[C@@H](O)[C@H](O)[C@@H](CO)O[C@H]1SCCCCCCNCCCN1C(=O)c2cccc3cccc(c23)C1=O` [compound 15k], for which the “Inhibition potency against hsHexB (in words)” value in data set [1] is on record as “considerably decreased”.
As a reminder, the melting point is the temperature of the solid-liquid transition. Turning to `CC(=O)N[C@@H]1[C@@H](O)[C@H](O)[C@@H](CO)O[C@H]1SCCNCCCN1C(=O)c2cccc3cccc(c23)C1=O` [compound 15b], the melting point lay in the range of 218 to 220 °C. Moreover, the “Type of inhibition of hOGA” value in data set [6] (Dixon plots, Figure 4B) is “competitive inhibitors”. The Ki in data set [6] (Dixon plots) amounted to 3.76 µM. Besides, the “Inhibition potency against hOGA (in words)” value in data set [6] is listed as “highest potency”. Further, in data set [1] (Dixon plots), the Ki was 30.4 µM.
Consider `CC(=O)N[C@@H]1[C@@H](O)[C@H](O)[C@@H](CO)O[C@H]1SCCCCCCNCCN1C(=O)c2cccc3cccc(c23)C1=O` [compound 15j], for which the Ki was over 100 µM in data set [6] (Dixon plots) and 0.91 µM in data set [1] (Dixon plots). The “Type of inhibition of hsHexB” value in data set [1] (Dixon plots, Figure 4A) was “competitive inhibitors”. Further, the “Inhibition potency against hsHexB (in words)” value in data set [1] is on record as “highest potencies”.
As for `COc1ccc(CN(CCCCCCCN2C[C@H](NC(C)=O)[C@@H](O)[C@H](O)[C@H]2CO)Cc2ccc(OC)cc2)cc1` [compound 4 (5)], the “Selectivity for hsHexB toward GH84 hOGA” value in data set [7] is given as 250,000 fold. In addition, the Ki in data set [7] (read-out: Ki against hsHexB) was 0.00069 µM.
As to `CC(=O)N[C@@H]1[C@@H](O)[C@H](O)[C@@H](CO)O[C@H]1SCCCCS[C@@H]1O[C@H](CO)[C@@H](O)[C@H](O)[C@H]1NC(C)=O` [compound 17, 1,4-bis[(2-acetamido-2-deoxy-β-D-glucopyranosyl)thio] butane], the melting point lay in the range of 236 to 238 °C. In addition, the “Inhibition potency against hOGA (in words)” value in data set [6] is reported as “hardly showed activity”. In addition, the “Inhibition potency against hsHexB (in words)” value in data set [1] is “hardly showed activity”.
Compound `CC(=O)N[C@@H]1[C@@H](O)[C@H](O)[C@@H](CO)O[C@H]1SCCCNCCN1C(=O)c2cccc3cccc(c23)C1=O` [compound 15d] yielded a melting point of 230 to 232 °C. Besides, in data set [1], the “Inhibition potency against hsHexB (in words)” value is on record as “highest potencies”.
